Article PMC5654082 (Malaria Journal, 2017)
Structures can show the parent of a compound that is named as a salt.

What was measured:
human OCT1 [1] = molecular target: T1, human OCT1 (Homo sapiens, UniProt O15245); test: Inhibition of OCT1-mediated ASP uptake in transduced HEK293 cells; type: cell-based; details: 50 µM anti-malarial, 10 µM ASP, 10 min, 37 °C; relative to solvent control fixed at 100%
T1 construct: host or cells: HEK293, baculovirus transduction (CMV promoter), transient
T1 sequence (O15245 1-554): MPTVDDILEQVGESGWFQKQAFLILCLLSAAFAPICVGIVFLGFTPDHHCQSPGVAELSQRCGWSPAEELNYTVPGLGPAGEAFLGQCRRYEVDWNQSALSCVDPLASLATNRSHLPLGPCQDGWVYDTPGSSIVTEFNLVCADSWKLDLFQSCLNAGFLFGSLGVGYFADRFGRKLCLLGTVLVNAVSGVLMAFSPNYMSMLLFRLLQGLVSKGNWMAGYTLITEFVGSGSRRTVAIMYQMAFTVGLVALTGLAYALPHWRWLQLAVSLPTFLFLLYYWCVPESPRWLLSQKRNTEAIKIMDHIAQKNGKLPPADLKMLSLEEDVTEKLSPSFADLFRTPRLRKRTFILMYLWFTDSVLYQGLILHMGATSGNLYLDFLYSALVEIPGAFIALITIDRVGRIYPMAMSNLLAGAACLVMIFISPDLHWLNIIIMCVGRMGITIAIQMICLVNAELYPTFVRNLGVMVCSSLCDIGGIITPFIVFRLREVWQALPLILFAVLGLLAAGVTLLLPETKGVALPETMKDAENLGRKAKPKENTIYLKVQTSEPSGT
Protocol: (§1) HEK293 cells were modified to transiently express (a combination of) human OCT1, OCT2, MATE1, MATE2-K, or eYFP. Briefly, cDNA of the respective genes was cloned downstream of a CMV promoter into a baculovirus, of which passage three was used to transduce HEK293 cells. These cells were seeded in poly-D-lysine coated 24- or 96-wells plates and grown in a 37 °C incubator at 5% CO2. Growth was initiated at ~ 25% confluency using 375 or 125 μL cell and complete medium (DMEM + GlutaMAX™-I supplemented with 10% fetal bovine serum) suspension per well, respectively. After 24 h, cells were transduced with 30 µL virus (10 µL virus + 20 µL complete medium in case of 96-wells plates) or 2 × 15 µL virus for cells that required simultaneous expression of two transporters. Finally, 195 µL sodium butyrate (45 µL for 96-wells plates) was added to a final concentration of 2 mM to enhance protein expression.
AMO (10 mM), ASP (1 mM), CQ (10 mM), PQ (10 mM) and PG (10 mM) were dissolved in MilliQ water. ART (10 mM), ATO (10 mM), DHA (10 mM), LUM (10 mM), MQ (10 mM), NMQ (20 mM), PYR (10 mM), QN (10 mM) were dissolved in DMSO. All compound stocks were stored at − 20 °C. Inhibition of OCT1- or OCT2-mediated ASP uptake by anti-malarials was performed in poly-D-lysine coated 96-wells plates 2 or 3 days following HEK293 cell transduction. In short, cells were washed with 125 µL 37 °C HBSS containing 10 mM HEPES, pH 7.4. Then, a 50 µL mixture of ASP (10 µM) and anti-malarial compound (25, 50 or 100 µM) in HBSS buffer (pH 7.4) was added to each well and incubated for 10 min at 37 °C. ASP transport was stopped by washing with 125 µL ice-cold HBSS-HEPES buffer supplemented with 0.5% BSA. Following a second wash with 125 µL ice-cold HBSS-HEPES buffer, cells were lysed with 125 µL 1 M NaOH and ASP was excited at a wavelength of 485 nm and fluorescence was detected at an emission wavelength of 535 nm using the Victor X3 multimode plate reader.
(§2) For each compound, a range of seven concentrations was used to determine the concentration at which ASP uptake was inhibited half maximally (IC50). At least three independent experiments (4 for QN) were performed for each drug in triplicate as described above. Inhibition curves were plotted by nonlinear regression analyses of the data using GraphPad Prism version 5.03. […] To generate the final dose–response inhibition curve per anti-malarial, percentage of uptake was averaged for each drug concentration per experiment and the resulting mean ± SEM corresponding to three or four independent experiments were plotted.

human OCT2 [2] = molecular target: T2, human OCT2 (Homo sapiens, UniProt O15244); test: OCT2-mediated cellular import in transduced HEK293 cells (LC-MS/MS); type: cell-based; details: 10 µM, 15 min, 37 °C
T2 construct: host or cells: HEK293, baculovirus transduction (CMV promoter), transient
T2 sequence (O15244 1-555): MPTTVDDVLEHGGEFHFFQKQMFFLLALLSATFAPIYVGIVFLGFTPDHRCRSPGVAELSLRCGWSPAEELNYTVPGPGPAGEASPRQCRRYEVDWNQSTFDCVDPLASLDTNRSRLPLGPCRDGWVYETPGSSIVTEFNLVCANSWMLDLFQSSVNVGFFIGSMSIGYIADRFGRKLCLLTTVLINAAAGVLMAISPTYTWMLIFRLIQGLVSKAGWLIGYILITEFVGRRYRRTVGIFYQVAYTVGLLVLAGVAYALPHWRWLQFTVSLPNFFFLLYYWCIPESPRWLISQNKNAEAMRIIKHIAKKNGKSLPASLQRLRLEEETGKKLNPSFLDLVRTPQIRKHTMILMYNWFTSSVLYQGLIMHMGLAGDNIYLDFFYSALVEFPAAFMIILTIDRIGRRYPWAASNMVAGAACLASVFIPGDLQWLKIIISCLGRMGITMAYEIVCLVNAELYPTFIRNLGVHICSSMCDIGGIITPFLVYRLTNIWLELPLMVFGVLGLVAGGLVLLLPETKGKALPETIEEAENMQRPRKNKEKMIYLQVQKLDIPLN
Protocol: as §1
HEK293 cells were seeded in 24-wells poly-D-lysine coated plates and transduced the subsequent day with OCT1 or OCT2 as described above. Three days following transduction, OCT1- or OCT2-mediated uptake of ten anti-malarials (AMO, ART, ATO, CQ, DHA, LUM, MQ, PQ, PG, and QN) was performed. […] Following a second wash with 400 µL ice-cold HBSS-HEPES buffer, cells were lysed with 200 µL 50% (v/v) MeOH and 0.1% (v/v) formic acid (HCOOH) in water and samples were sent for quantification by mass spectrometry analysis (see “LC–MS/MS quantification of anti-malarials” section). […]
(§3) The affinity (KM) and maximum transport rate (Vmax) for OCT1 and OCT2 of PG were determined by analysing concentration-dependent uptake data from three independent experiments.
Import and export of PG and cycloguanil (CG) was assessed by single and double transduced HEK293 cells. […] Following the same procedure as for the cellular import assay described above, the import of 100 µM PG and CG was measured after 5 min incubation and data was plotted as mean pmol/mg/min ± SEM. […] Significant reduction in uptake (i.e. export by MATEs) was determined using ln transformation and a one-way repeated measures ANOVA with Dunnet’s post test. […]

human OCT1 [3] = molecular target: T1, human OCT1; test: OCT1-mediated cellular import in transduced HEK293 cells (LC-MS/MS); type: cell-based; details: 10 µM, 15 min, 37 °C
Protocol: as §1
HEK293 cells were seeded in 24-wells poly-D-lysine coated plates and transduced the subsequent day with OCT1 or OCT2 as described above. Three days following transduction, OCT1- or OCT2-mediated uptake of ten anti-malarials (AMO, ART, ATO, CQ, DHA, LUM, MQ, PQ, PG, and QN) was performed. NMQ served as a positive substrate for both OCT1 and OCT2 import. In short, cells were washed with 400 µL 37 °C HBSS-HEPES buffer followed by adding 150 µL HBSS buffer with 10 µM anti-malarial or NMQ to each well. After incubation for 15 min at 37 °C, import was stopped by washing with 400 µL ice-cold HBSS-HEPES buffer supplemented with 0.5% BSA. Following a second wash with 400 µL ice-cold HBSS-HEPES buffer, cells were lysed with 200 µL 50% (v/v) MeOH and 0.1% (v/v) formic acid (HCOOH) in water and samples were sent for quantification by mass spectrometry analysis (see “LC–MS/MS quantification of anti-malarials” section). […]
as §3
Import and export of PG and cycloguanil (CG) was assessed by single and double transduced HEK293 cells. […] Following the same procedure as for the cellular import assay described above, the import of 100 µM PG and CG was measured after 5 min incubation and data was plotted as mean pmol/mg/min ± SEM. […] Significant reduction in uptake (i.e. export by MATEs) was determined using ln transformation and a one-way repeated measures ANOVA with Dunnet’s post test.
Anti-malarial concentration in the cell lysates was quantified using an LC–MS/MS system consisting of a UPLC, a binary solvent manager, a vacuum degasser and an autosampler, coupled to a Xevo TQ-S micro triple quadrupole mass spectrometer. […]

human OCT2 [4] = molecular target: T2, human OCT2; test: Inhibition of OCT2-mediated ASP uptake in transduced HEK293 cells; type: cell-based; details: 50 µM anti-malarial, 10 µM ASP, 10 min, 37 °C; relative to solvent control fixed at 100%
Protocol: as §1, with “Growth was initiated at ~ 25% confluency using 375 or 125 μL cell and complete medium (DMEM + GlutaMAX™-I supplemented with 10% fetal bovine serum) suspension per well, respectively.” left out
AMO (10 mM), ASP (1 mM), CQ (10 mM), PQ (10 mM) and PG (10 mM) were dissolved in MilliQ water. ART (10 mM), ATO (10 mM), DHA (10 mM), LUM (10 mM), MQ (10 mM), NMQ (20 mM), PYR (10 mM), QN (10 mM) were dissolved in DMSO. All compound stocks were stored at − 20 °C. Inhibition of OCT1- or OCT2-mediated ASP uptake by anti-malarials was performed in poly-D-lysine coated 96-wells plates 2 or 3 days following HEK293 cell transduction. In short, cells were washed with 125 µL 37 °C HBSS containing 10 mM HEPES, pH 7.4. […] ASP transport was stopped by washing with 125 µL ice-cold HBSS-HEPES buffer supplemented with 0.5% BSA.
as §2, with “above.” for “above. Inhibition curves were plotted by nonlinear regression analyses of the data using GraphPad Prism version 5.03.”

[5] = substrate: [H]/N=C(\N/C(=N/[H])Nc1ccc(Cl)cc1)NC(C)C; test: OCT1-mediated cellular import in transduced HEK293 cells (LC-MS/MS); type: cell-based, human; details: other: 1 min incubation, 37 °C, 2.0–16 µM, pH 7.4
Protocol: HEK293 cells were modified to transiently express (a combination of) human OCT1, OCT2, MATE1, MATE2-K, or eYFP. Briefly, cDNA of the respective genes was cloned downstream of a CMV promoter into a baculovirus, of which passage three was used to transduce HEK293 cells. These cells were seeded in poly-D-lysine coated 24- or 96-wells plates and grown in a 37 °C incubator at 5% CO2. Growth was initiated at ~ 25% confluency using 375 or 125 μL cell and complete medium (DMEM + GlutaMAX™-I supplemented with 10% fetal bovine serum) suspension per well, respectively. […]
HEK293 cells were seeded in 24-wells poly-D-lysine coated plates and transduced the subsequent day with OCT1 or OCT2 as described above. […] Following a second wash with 400 µL ice-cold HBSS-HEPES buffer, cells were lysed with 200 µL 50% (v/v) MeOH and 0.1% (v/v) formic acid (HCOOH) in water and samples were sent for quantification by mass spectrometry analysis (see “LC–MS/MS quantification of anti-malarials” section). […]
as §3
Import and export of PG and cycloguanil (CG) was assessed by single and double transduced HEK293 cells. […]

## OC(c1cc(C(F)(F)F)nc2c(C(F)(F)F)cccc12)C1CCCCN1 (stereo not drawn) [Mefloquine, mefloquine hydrochloride]
Human OCT1 [1]
  Relative ASP uptake (OCT1-mediated): 150 ± 21%

## C=C[C@H]1C[N+]2(C)CC[C@H]1C[C@@H]2[C@@H](O)c1ccnc2ccc(OC)cc12 [NMQ, N-methyl-quinidine]
Human OCT2 [2]
  Uptake by OCT2, percentage of mock-transduced control: taken up
Human OCT1 [3]
  Uptake by OCT1, percentage of mock-transduced control: taken up

## COc1cc(NC(C)CCCN)c2ncccc2c1 (stereo not drawn) [Primaquine, primaquine diphosphate]
Human OCT2 [4]
  Relative ASP uptake (OCT2-mediated): 60 ± 7%
Human OCT1 [1]
  Relative ASP uptake (OCT1-mediated): 59 ± 3%

B1: human OCT1 (Homo sapiens) (protein)
chain: MPTVDDILEQVGESGWFQKQAFLILCLLSAAFAPICVGIVFLGFTPDHHCQSPGVAELSQRCGWSPAEELNYTVPGLGPAGEAFLGQCRRYEVDWNQSALSCVDPLASLATNRSHLPLGPCQDGWVYDTPGSSIVTEFNLVCADSWKLDLFQSCLNAGFLFGSLGVGYFADRFGRKLCLLGTVLVNAVSGVLMAFSPNYMSMLLFRLLQGLVSKGNWMAGYTLITEFVGSGSRRTVAIMYQMAFTVGLVALTGLAYALPHWRWLQLAVSLPTFLFLLYYWCVPESPRWLLSQKRNTEAIKIMDHIAQKNGKLPPADLKMLSLEEDVTEKLSPSFADLFRTPRLRKRTFILMYLWFTDSVLYQGLILHMGATSGNLYLDFLYSALVEIPGAFIALITIDRVGRIYPMAMSNLLAGAACLVMIFISPDLHWLNIIIMCVGRMGITIAIQMICLVNAELYPTFVRNLGVMVCSSLCDIGGIITPFIVFRLREVWQALPLILFAVLGLLAAGVTLLLPETKGVALPETMKDAENLGRKAKPKENTIYLKVQTSEPSGT
notes: host or cells: HEK293, baculovirus transduction (CMV promoter), transient
[5]
  Km: 8.1 µM
